One may read the IC50 as the midpoint of a concentration-inhibition curve. Low values mean higher potency, high ones lower potency.

Molecules are shown by their SMILES.

The text below walks through data of US20220089592A1, “IMIDAZO[1,2-A]PYRIDINYL DERIVATIVES AS IRAK4 INHIBITORS” (priority 2019, published 2022).

The assay addresses T1, IRAK4 (Homo sapiens, UniProt Q9NWZ3).
T1 sequence (Q9NWZ3 1-460): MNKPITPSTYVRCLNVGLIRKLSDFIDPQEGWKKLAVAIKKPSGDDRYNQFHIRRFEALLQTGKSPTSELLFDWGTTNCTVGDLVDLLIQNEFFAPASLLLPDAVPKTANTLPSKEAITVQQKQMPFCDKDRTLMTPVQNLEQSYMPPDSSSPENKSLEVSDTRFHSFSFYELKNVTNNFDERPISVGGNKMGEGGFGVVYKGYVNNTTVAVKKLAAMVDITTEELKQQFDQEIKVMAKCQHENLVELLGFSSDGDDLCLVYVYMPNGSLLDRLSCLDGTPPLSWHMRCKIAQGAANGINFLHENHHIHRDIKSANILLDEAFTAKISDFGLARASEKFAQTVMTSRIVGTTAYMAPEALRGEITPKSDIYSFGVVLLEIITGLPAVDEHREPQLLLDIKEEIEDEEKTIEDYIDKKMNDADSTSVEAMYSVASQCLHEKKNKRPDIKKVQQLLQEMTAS
The assay is described as follows: 2-hour 1 mM ATP IRAK4 Biochemical assay (as above, but with 100 pM IRAK4 and 1 mM ATP). Particulars: IRAK4 MSD BIOCHEMICAL (1 mM ATP) IC50 (μM), 100 pM IRAK4, 2 hours. Here is the method:
The 2-hour 10 μM ATP Biochemical Assay employs a MesoScale Detection (MSD) format.
The activity is quenched with 11 μl of 70 mM EDTA, pH 8.
To detect the phosphorylated biotinylated peptide substrate, 30 μl of the quenched reaction mixture is added to equivalent wells of a 384 well streptavidin coated MesoScale plate (Meso Scale Discovery #L21SA-1). After a 1 hour incubation of the plate for 1 hour at room temperature with gentle mixing, the plate wells are washed 3 times with 50 mM Tris, pH 7.5, 150 mM NaCl, 0.02% Tween-20.
A 25 μl volume of 1:500 anti-P-Threonine Rabbit polyclonal Antibody plus 1:500 Goat-anti-Rabbit Sulfo Tag Antibody (Meso Scale Discovery R32AB-1) in 50 mM Tris, pH 7.5, 150 mM NaCl, 0.02% Tween-20 plus 2% BSA is then added to each well. After a 1-hour incubation of the plate for 1 hour at room temperature with gentle mixing, the plate wells are washed, 3 times with 50 mM Tris, pH 7.5, 150 mM NaCl, 0.02% Tween-20. A 40 μl volume of 2×MSD Read Buffer (Meso Scale Discovery R92TC-1) is added to each well, and the plate is read immediately in an MSD Plate Reader (Meso Scale Discovery).
The 2-hour 1 mM ATP IRAK4 Biochemical assay was performed as described above, but with 100 pM IRAK4 and 1 mM ATP.
With `COC(=O)C(C)(C)c1cn2cc(NC(=O)c3cccc(C(F)F)n3)c(OC(C)C)cc2n1` [Example 261, methyl 2-(6-(6-(difluoromethyl)picolinamido)-7-isopropoxyimidazo[1,2-a]pyridin-2-yl)-2-methylpropanoate], the IC50 was 0.002 µM.
Regarding `CC(C)Oc1cc2nc(C(C)(C)C(=O)O)cn2cc1NC(=O)c1cccc(C(F)F)n1` [Example 262, 2-(6-(6-(difluoromethyl)picolinamido)-7-isopropoxyimidazo[1,2-a]pyridin-2-yl)-2-methylpropanoic acid], half-maximal inhibition (IC50) was put at 0.006 µM. This IC50 lies about 3-fold higher than the previous one.
Regarding `Cc1nn(C)cc1-c1cn2cc(NC(=O)c3cccc(C(F)F)n3)c(OC(C)C)cc2n1` [Example 263, 6-(difluoromethyl)-N-(2-(1,3-dimethyl-1H-pyrazol-4-yl)-7-isopropoxyimidazo[1,2-a]pyridin-6-yl)picolinamide], the IC50 was determined as 0.001 µM.
The result for `CC(C)Oc1cc2nc(-c3cn(C)nc3C(F)F)cn2cc1NC(=O)c1cccc(C(F)F)n1` [Example 264, 6-(difluoromethyl)-N-(2-(3-(difluoromethyl)-1-methyl-1H-pyrazol-4-yl)-7-isopropoxyimidazo[1,2-a]pyridin-6-yl)picolinamide] reads 0.002 µM; that for `CC(C)Oc1cc2nc(C(F)F)cn2cc1NC(=O)c1ccn(C(F)F)n1` [Example 267, 1-(difluoromethyl)-N-(2-(difluoromethyl)-7-isopropoxyimidazo[1,2-a]pyridin-6-yl)-1H-pyrazole-3-carboxamide], 0.002 µM; that for `COc1cc(NC(=O)c2cccc(C(F)F)n2)cn2cc([C@]3(C)C[C@@H](OC)C3)nc12` [Example 271, 6-(difluoromethyl)-N-(8-methoxy-2-((1r*,3r*)-3-methoxy-1-methylcyclobutyl)imidazo[1,2-a]pyridin-6-yl)picolinamide], 0.016 µM.
`CCOc1c(NC(=O)c2cccc(C(F)F)n2)cn2cc(C3CCOCC3)nc2c1Cl` [Example 272, N-(8-chloro-7-ethoxy-2-(tetrahydro-2H-pyran-4-yl)imidazo[1,2-a]pyridin-6-yl)-6-(difluoromethyl)picolinamide] yielded an IC50 of 0.003 µM.
`O=C(Nc1cn2cc(C3CC4(CCOC4)C3)nc2cn1)c1cccc(C(F)F)n1` (centres unmarked) [Example 273, N-(2-(6-oxaspiro[3.4]octan-2-yl)imidazo[1,2-a]pyrazin-6-yl)-6-(difluoromethyl)picolinamide]: inhibition was half-maximal at 0.02 µM (IC50).
The compound `CC12CC(c3cn4cc(NC(=O)c5cccc(C(F)F)n5)ncc4n3)(CO1)C2` [Example 274, 6-(difluoromethyl)-N-(2-(1-methyl-2-oxabicyclo[2.1.1]hexan-4-yl)imidazo[1,2-a]pyrazin-6-yl)picolinamide] returned an IC50 of 0.068 µM.
`O=C(Nc1cn2cc(C3CCOCC3)nc2cn1)c1cccc2c1OCC2` [Example 275, N-(2-(tetrahydro-2H-pyran-4-yl)imidazo[1,2-a]pyrazin-6-yl)-2,3-dihydrobenzofuran-7-carboxamide] registered an IC50 of 0.038 µM.
For `COc1nc(NC(=O)c2cccc(C(F)F)n2)cn2cc(C3COCCO3)nc12` (centres unmarked) [Example 278, N-(2-(1,4-dioxan-2-yl)-8-methoxyimidazo[1,2-a]pyrazin-6-yl)-6-(difluoromethyl)picolinamide], the IC50 is 0.023 µM.
Regarding `COCCCc1cn2cc(NC(=O)c3cccc(C(F)F)n3)cc(OC)c2n1` [Example 282, 6-(difluoromethyl)-N-(8-methoxy-2-(3-methoxypropyl)imidazo[1,2-a]pyridin-6-yl)picolinamide], the IC50 was found to be 0.007 µM. This IC50 is about 3.3-fold lower than that of the compound before.
In turn, `O=C(Nc1cc(OCC(F)F)c2nc(C3CCOCC3)cn2c1)c1cccc(C(F)F)n1` [Example 289, N-(8-(2,2-difluoroethoxy)-2-(tetrahydro-2H-pyran-4-yl)imidazo[1,2-a]pyridin-6-yl)-6-(difluoromethyl)picolinamide] returned an IC50 of 0.006 µM.
`CCc1cc(NC(=O)c2cccc(C(F)F)n2)cn2cc(C3CCOCC3)nc12` [Example 290, 6-(difluoromethyl)-N-(8-ethyl-2-(tetrahydro-2H-pyran-4-yl)imidazo[1,2-a]pyridin-6-yl)picolinamide] displayed an IC50 of 0.013 µM.
For `CC(C)(O)c1cc2nc(C3CCOCC3)cn2cc1NC(=O)c1cccc(C(F)F)n1` [Example 292, 6-(difluoromethyl)-N-(7-(2-hydroxypropan-2-yl)-2-(tetrahydro-2H-pyran-4-yl)imidazo[1,2-a]pyridin-6-yl)picolinamide] the value was 0.001 µM.
For `CC(C)Oc1cc2nc(Cl)cn2cc1NC(=O)c1cccc(C(F)F)n1` [Example 294, N-(2-chloro-7-isopropoxyimidazo[1,2-a]pyridin-6-yl)-6-(difluoromethyl)picolinamide], inhibition was half-maximal at 0.002 µM (IC50). Compared with the last compound, the IC50 is about 2-fold higher.
`COc1c(NC(=O)c2cccc(C(F)F)n2)cn2cc(C34COC(C)(C3)C4)nc2c1C` [Example 295, 6-(difluoromethyl)-N-(7-methoxy-8-methyl-2-(1-methyl-2-oxabicyclo[2.1.1]hexan-4-yl)imidazo[1,2-a]pyridin-6-yl)picolinamide] yielded a 50% inhibitory concentration (IC50) of 0.004 µM.
Regarding `Cc1nc(NC(=O)c2cccc(C(F)F)n2)cn2cc(C3CCOCC3)nc12` [Example 296, 6-(difluoromethyl)-N-(8-methyl-2-(tetrahydro-2H-pyran-4-yl)imidazo[1,2-a]pyrazin-6-yl)picolinamide], inhibition was half-maximal at 0.089 µM (IC50). Compared with the last compound, the IC50 is about 22-fold higher.
Turning to `O=C(Nc1cn2cc(C3CCOCC3)nc2c(OCC(F)(F)F)n1)c1cccc(C(F)F)n1` [Example 303, 6-(difluoromethyl)-N-(2-(tetrahydro-2H-pyran-4-yl)-8-(2,2,2-trifluoroethoxy)imidazo[1,2-a]pyrazin-6-yl)picolinamide], the IC50 amounted to 0.038 µM. Compared with the last compound, the IC50 is about 2.3-fold lower.
`O=C(Nc1cc(OC(F)F)c2nc(C3CCOCC3)cn2c1)c1cccc(C(F)F)n1` [Example 307, N-(8-(difluoromethoxy)-2-(tetrahydro-2H-pyran-4-yl)imidazo[1,2-a]pyridin-6-yl)-6-(difluoromethyl)picolinamide] had an IC50 of 0.015 µM.
Turning to `O=C(Nc1cc(Cl)c2nc(C3CCOCC3)cn2c1)c1cccc(C(F)F)n1` [Example 308, N-(8-chloro-2-(tetrahydro-2H-pyran-4-yl)imidazo[1,2-a]pyridin-6-yl)-6-(difluoromethyl)picolinamide], the midpoint of inhibition, the IC50, lay at 0.043 µM.
In the case of `COc1cc2nc(C34COC(C)(C3)C4)cn2cc1NC(=O)c1cccc(C(F)(F)F)n1` [Example 309, N-(7-methoxy-2-(1-methyl-2-oxabicyclo[2.1.1]hexan-4-yl)imidazo[1,2-a]pyridin-6-yl)-6-(trifluoromethyl)picolinamide], the IC50 is 0.001 µM.
In the case of `COc1ccccc1C(=O)Nc1cn2cc(C34CC(C#N)(C3)C4)nc2cc1OC(C)C` [Example 311, N-(2-(3-cyanobicyclo[1.1.1]pentan-1-yl)-7-isopropoxyimidazo[1,2-a]pyridin-6-yl)-2-methoxybenzamide], inhibition was half-maximal at 0.006 µM (IC50). This IC50 is about 6-fold higher than that of the compound before.
The compound `O=C(Nc1cn2cc(C3CCOCC3)nc2cc1C(F)(F)F)c1cccc(C(F)F)n1` [Example 312, 6-(difluoromethyl)-N-(2-(tetrahydro-2H-pyran-4-yl)-7-(trifluoromethyl)imidazo[1,2-a]pyridin-6-yl)picolinamide] gave an IC50 of 0.052 µM.
For the compound `COC(C)c1cc2nc(C3CCOCC3)cn2cc1NC(=O)c1cccc(C(F)F)n1` (centres unmarked) [Example 313, 6-(difluoromethyl)-N-(7-(1-methoxyethyl)-2-(tetrahydro-2H-pyran-4-yl)imidazo[1,2-a]pyridin-6-yl)picolinamide], the IC50 amounted to 0.067 µM.
Regarding `COCc1cc2nc(C3CCOCC3)cn2cc1NC(=O)c1cccc(C(F)F)n1` [Example 314, 6-(difluoromethyl)-N-(7-(methoxymethyl)-2-(tetrahydro-2H-pyran-4-yl)imidazo[1,2-a]pyridin-6-yl)picolinamide], half-maximal inhibition (IC50) was put at 0.013 µM.
The result for `Cc1cccc(C(=O)Nc2cn3cc(C4CCOCC4)nc3cc2C(F)F)n1` [Example 315, N-(7-(difluoromethyl)-2-(tetrahydro-2H-pyran-4-yl)imidazo[1,2-a]pyridin-6-yl)-6-methylpicolinamide] reads 0.021 µM; that for `CCOc1cc2nc(C(C)C#N)cn2cc1NC(=O)c1cccc(C(F)F)n1` (centres unmarked) [Example 316, N-(2-(1-cyanoethyl)-7-ethoxyimidazo[1,2-a]pyridin-6-yl)-6-(difluoromethyl)picolinamide], 0.003 µM; that for `CC(C)Oc1c(NC(=O)c2cccnc2OC(F)F)cn2cc(C34COC(C)(C3)C4)nc2c1F` [Example 323, 2-(difluoromethoxy)-N-(8-fluoro-7-isopropoxy-2-(1-methyl-2-oxabicyclo[2.1.1]hexan-4-yl)imidazo[1,2-a]pyridin-6-yl)nicotinamide], 0.073 µM.
